Drawing on patent publication US8680096B2, “Diphenyl-pyrazolopyridine derivatives, preparation thereof, and use thereof as nuclear receptor not modulators” (Sanofi-Aventis, priority 2009, dated 2014), this text covers EC50 and melting point for 27 compounds.

The target of one data set is T1, murine Nurr1 receptor (Mus musculus, UniProt Q06219).
T1 construct: a cell line (N2A) endogenously expressing the murine Nurr1 receptor; host or cells: Neuro-2A (N2A) mouse neuroblastoma cells stably transfected with 8NBRE-luciferase
T1 sequence (Q06219 whole entry): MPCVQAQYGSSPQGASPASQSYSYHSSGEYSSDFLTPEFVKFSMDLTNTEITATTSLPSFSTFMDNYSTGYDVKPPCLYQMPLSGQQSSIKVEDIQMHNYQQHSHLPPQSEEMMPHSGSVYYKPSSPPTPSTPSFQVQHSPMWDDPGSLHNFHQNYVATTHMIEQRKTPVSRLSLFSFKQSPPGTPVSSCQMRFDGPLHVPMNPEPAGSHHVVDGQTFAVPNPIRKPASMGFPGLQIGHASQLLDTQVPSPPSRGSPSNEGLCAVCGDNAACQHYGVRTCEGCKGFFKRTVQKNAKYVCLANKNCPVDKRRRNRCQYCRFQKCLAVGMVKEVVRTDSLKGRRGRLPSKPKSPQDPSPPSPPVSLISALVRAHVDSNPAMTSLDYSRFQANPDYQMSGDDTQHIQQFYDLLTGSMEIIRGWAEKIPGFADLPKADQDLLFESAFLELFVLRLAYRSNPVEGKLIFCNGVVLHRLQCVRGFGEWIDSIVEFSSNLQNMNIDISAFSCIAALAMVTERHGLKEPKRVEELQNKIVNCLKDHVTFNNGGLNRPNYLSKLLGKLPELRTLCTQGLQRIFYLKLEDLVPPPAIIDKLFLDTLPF
Briefly: In vitro activity on N2A cells (8NBRE-luciferase reporter). The class given is cell-based. The note with it: N2A cells endogenously expressing Nurr1, stably transfected with 8NBRE-luciferase; 24 hours incubation. How it is done: Evaluation of the In Vitro Activity on N2A Cells
The activity of the compounds according to the invention was evaluated on a cell line (N2A) endogenously expressing the murine Nurr1 receptor and stably transfected with the NOT binding response element (NBRE) coupled to the luciferase reporter gene. The tests were performed according to the procedure described hereinbelow.
The cell line Neuro-2A is obtained from a standard commercial source (ATCC). The clone Neuro-2A was obtained from a spontaneous tumour originating from a strain of albino mice A by R. J Klebe et al. This line Neuro-2A is then stably transfected with 8NBRE-luciferase. The N2A-8NBRE cells are cultured to the point of confluence in 75 cm^2 culture flasks containing DMEM supplemented with 10% foetal calf serum, 4.5 g/L of glucose and 0.4 mg/ml of geneticin. After culturing for one week, the cells are recovered with 0.25% trypsin for 30 seconds and then resuspended in DMEM without phenol red, containing 4.5 g/L of glucose and 10% Hyclone defatted serum, and placed in white, transparent-base 96-well plates. The cells are deposited at a rate of 60 000 per well in 75 4, for 24 hours before adding the products. The products are applied in 25 4 and incubated for a further 24 hours. On the day of measurement, an equivalent volume (100 4) of Steadylite is added to each well, and the wells are then left for 30 minutes to obtain complete lysis of the cells and maximum production of the signal. The plates are then measured in a microplate luminescence counter, after having been sealed with an adhesive film. The products are prepared in the form of a 10^−2 M stock solution, and then diluted in 100% of DMSO. Each concentration of product is prediluted in culture medium before incubation with the cells thus containing 0.625% final of DMSO.
In general terms: In a reporter assay the amount or activity of a reporter protein is the signal.
Broadly, the EC50 is the midpoint of the concentration-response curve. `CNC(=O)c1ccc(-c2ccn3nc(-c4ccc(F)cc4)cc3c2)cc1F` [Compound 14, 2-Fluoro-4-[2-(4-fluorophenyl)pyrazolo[1,5-c]pyridin-5-yl]-N-methylbenzamide] yielded an EC50 of 125 nM.

Regarding `NC(=O)c1cccc(-c2ccn3nc(-c4ccc(Cl)cc4)cc3c2)c1` [Compound 2, 3-[2-(4-Chlorophenyl)pyrazolo[1,5-a]pyridin-5-yl]benzamide], the EC50 turned out to be 45 nM.

The compound `CNC(=O)c1cccc(-c2ccn3nc(-c4ccc(F)cc4)cc3c2)c1C` [Compound 10, 3-[2-(4-Fluorophenyl)pyrazolo[1,5-a]pyridin-5-yl]-2,N-dimethylbenzamide] showed a half-maximal effective concentration (EC50) of 6.6 nM.

`CNC(=O)c1cccc(-c2ccn3nc(-c4ccc(Cl)cc4)cc3c2)c1` [Compound 4, 3-[2-(4-Chlorophenyl)pyrazolo[1,5-a]pyridin-5-yl]-N-methylbenzamide] returned an EC50 of 2 nM.

`O=C(c1cccc(-c2ccn3nc(-c4ccc(F)cc4)cc3c2)c1)N1CCCC1` [Compound 16, {3-[2-(4-Fluorophenyl)pyrazolo[1,5-c]pyridin-5-yl]phenyl}pyrrolidin-1-ylmethanone] showed an EC50 of 326 nM.

In turn, `CNC(=O)c1cccc(-c2ccn3nc(-c4cc(F)cc(F)c4)cc3c2)c1` [Compound 26] had an EC50 of 1.3 nM.

Tested on in the next data set: not given
Assay: not given
Details: not given
In general, melting point refers to the temperature, or range, at which the solid turns liquid. Take `CNC(=O)c1cccc(-c2ccn3nc(-c4ccc(C)cc4)cc3c2)c1` [Compound 28, N-Methyl-3-(2-p-tolylpyrazolo[1,5-a]pyridin-5-yl)benzamide]: the melting point lay within 204 to 206 °C.

`CNC(=O)c1cccc(-c2ccn3nc(-c4ccc(F)cc4)cc3c2)c1` [Compound 6, 3-[2-(4-Fluorophenyl)pyrazolo[1,5-a]pyridin-5-yl]-N-methylbenzamide] displayed a melting point of 214 to 216 °C.

The compound `CNC(=O)c1cc(-c2ccn3nc(-c4ccc(F)cc4)cc3c2)ccc1Cl` [Compound 11, 2-Chloro-5-[2-(4-fluorophenyl)pyrazolo[1,5-a]pyridin-5-yl]-N-methylbenzamide] returned a melting point of 243 to 245 °C.

`COC(=O)c1cccc(-c2ccn3nc(-c4ccc(Cl)cc4)cc3c2)c1` [Compound 1, Methyl 3-[2-(4-chlorophenyl)pyrazolo[1,5-a]pyridin-5-yl]benzoate] showed a melting point of 180 to 182 °C.

As to `COC(=O)c1cccc(-c2ccn3nc(-c4ccc(F)cc4)cc3c2)c1` [Compound 5, Methyl 3-[2-(4-fluorophenyl)pyrazolo[1,5-a]pyridin-5-yl]benzoate], the melting point is 162 to 164 °C.

In the case of `CNC(=O)c1ccc(C)c(-c2ccn3nc(-c4ccc(F)cc4)cc3c2)c1` [Compound 13, 3-[2-(4-Fluorophenyl)pyrazolo[1,5-a]pyridin-5-yl]-4,N-dimethylbenzamide], the melting point lay in the range of 185 to 187 °C.

On to `CNC(=O)c1ccc(-c2ccn3nc(-c4ccc(F)cc4)cc3c2)cc1` [Compound 20, 4-[2-(4-Fluorophenyl)pyrazolo[1,5-a]pyridin-5-yl]-N-methylbenzamide], for which the melting point was in the range of 264 to 266 °C.

In the case of `CNC(=O)c1ccc(-c2ccn3nc(-c4ccc(F)cc4)cc3c2)cc1F` [Compound 14, 2-Fluoro-4-[2-(4-fluorophenyl)pyrazolo[1,5-c]pyridin-5-yl]-N-methylbenzamide], the melting point was in the range of 227 to 229 °C.

Consider `NC(=O)c1cccc(-c2ccn3nc(-c4ccc(Cl)cc4)cc3c2)c1` [Compound 2, 3-[2-(4-Chlorophenyl)pyrazolo[1,5-a]pyridin-5-yl]benzamide], for which the melting point lay in the range of 283 to 285 °C.

`CNC(=O)c1cccc(-c2ccn3nc(-c4ccc(OC)cc4)cc3c2)c1` [Compound 29, 3-[2-(4-Methoxyphenyl)pyrazolo[1,5-a]pyridin-5-yl]-N-methylbenzamide] showed a melting point of 211 to 213 °C.

As to `CNC(=O)c1cccc(-c2ccn3nc(-c4ccc(F)cc4)c(Cl)c3c2)c1` [Compound 34, 3-[3-Chloro-2-(4-fluorophenyl)pyrazolo[1,5-a]pyridin-5-yl]-N-methyl-benzamide], the melting point is 221 to 223 °C.

The compound `CNC(=O)c1cccc(-c2ccn3nc(-c4ccccc4F)cc3c2)c1` [Compound 18, 3-[2-(2-Fluorophenyl)pyrazolo[1,5-a]pyridin-5-yl]-N-methylbenzamide] came in with a melting point of 195 to 197 °C.

`CNC(=O)c1cccc(-c2ccn3nc(-c4ccccc4C)cc3c2)c1` [Compound 33, N-Methyl-3-(2-o-tolylpyrazolo[1,5-a]pyridin-5-yl)benzamide] displayed a melting point of 129 to 131 °C.

For `CNC(=O)c1cccc(-c2ccn3nc(-c4cccc(F)c4F)cc3c2)c1` [Compound 32, 3-[2-(2,3-Difluorophenyl)pyrazolo[1,5-a]pyridin-5-yl]-N-methylbenzamide], the melting point fell in the range of 214 to 216 °C.

In turn, `CNC(=O)c1cccc(-c2ccn3nc(-c4ccc(C#N)cc4)cc3c2)c1` [Compound 31, 3-[2-(4-Cyanophenyl)pyrazolo[1,5-a]pyridin-5-yl]-N-methylbenzamide] yielded a melting point of 252 to 254 °C.

As for `CNC(=O)c1cccc(-c2ccn3nc(-c4cccc(F)c4)cc3c2)c1` [Compound 27, 3-[2-(3-Fluorophenyl)pyrazolo[1,5-a]pyridin-5-yl]-N-methylbenzamide], the melting point is 204 to 206 °C.

`CNC(=O)c1cccc(-c2ccn3nc(-c4ccc(C(F)(F)F)cc4)cc3c2)c1` [Compound 19, N-Methyl-3-[2-(4-trifluoromethylphenyl)pyrazolo[1,5-a]pyridin-5-yl]benzamide]: the melting point was in the range of 220 to 222 °C.

With `CN(C)C(=O)c1cccc(-c2ccn3nc(-c4ccc(Cl)cc4)cc3c2)c1` [Compound 3, 3-[2-(4-Chlorophenyl)pyrazolo[1,5-a]pyridin-5-yl]-N,N-dimethyl-benzamide], the melting point was 175 to 177 °C.

Turning to `CNC(=O)c1cccc(-c2ccn3nc(-c4ccc(Cl)cc4)cc3c2)c1` [Compound 4, 3-[2-(4-Chlorophenyl)pyrazolo[1,5-a]pyridin-5-yl]-N-methylbenzamide], the melting point was 234 to 236 °C.

`CC(C)NC(=O)c1cccc(-c2ccn3nc(-c4ccc(F)cc4)cc3c2)c1` [Compound 7, 3-[2-(4-Fluorophenyl)pyrazolo[1,5-a]pyridin-5-yl]-N-isopropylbenzamide] showed a melting point of 210 to 212 °C.

Compound `CNC(=O)c1ccc(Cl)c(-c2ccn3nc(-c4ccc(F)cc4)cc3c2)c1` [Compound 12, 4-Chloro-3-[2-(4-fluorophenyl)pyrazolo[1,5-a]pyridin-5-yl]-N-methylbenzamide] returned a melting point of 188 to 190 °C.

In turn, `O=C(c1cccc(-c2ccn3nc(-c4ccc(F)cc4)cc3c2)c1)N1CCCC1` [Compound 16, {3-[2-(4-Fluorophenyl)pyrazolo[1,5-c]pyridin-5-yl]phenyl}pyrrolidin-1-ylmethanone] registered a melting point of 164 to 166 °C.

Compound `CNC(=O)c1cccc(-c2ccn3nc(-c4cc(F)cc(F)c4)cc3c2)c1` [Compound 26] had a melting point of 230 to 232 °C.

`CNC(=O)c1cccc(-c2ccn3nc(-c4ccc(F)cc4F)cc3c2)c1` [Compound 23, 3-[2-(2,4-Difluorophenyl)pyrazolo[1,5-a]pyridin-5-yl]-N-methylbenzamide] displayed a melting point of 210 to 212 °C.

The compound `O=C(c1cccc(-c2ccn3nc(-c4ccc(F)cc4)cc3c2)c1)N1CCC(O)C1` (centres unmarked) [Compound 22, {3-[2-(4-Fluorophenyl)pyrazolo[1,5-a]pyridin-5-yl]phenyl}-(3-hydroxy-pyrrolidin-1-yl)methanone] yielded a melting point of 173 to 175 °C.

As to `O=C(NC1CC1)c1cccc(-c2ccn3nc(-c4ccc(F)cc4)cc3c2)c1` [Compound 15, N-Cyclopropyl-3-[2-(4-fluorophenyl)pyrazolo[1,5-a]pyridin-5-yl]-benzamide], the melting point lay within 179 to 181 °C.
